From the supplement of paper PMC6045584
± gives the standard deviation of the averaged measurements.

Experiments:
[1] = compound: COc1cc(CCc2cc(NC(=O)c3ccc(N4CC(C)NC(C)C4)cc3)n[nH]2)cc(OC)c1 [AZD4547]; experiment: surviving fraction relative to DMSO-only wells; higher = less growth inhibition; conditions: exposure time: 5 days
Summary of the method: (§1)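 Log-phase tumour cell lines were seeded at 250–500 cells per well in 384-well plates. After 24 hours they were exposed continuously for five days to inhibitors at 0.5, 1, 5, 10, 50, 100, 500 and 1000 nM. Viability was read by CellTiter-Glo luminescence after 10 minutes at room temperature, and surviving fraction is luminescence normalised to the median of DMSO-only wells. Each line was screened three times and kept only if replicate Pearson r >0.7 and median Z' >0.3.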

[2] = compound: CN(Cc1cnc2nc(N)nc(N)c2n1)c1ccc(C(=O)N[C@@H](CCC(=O)O)C(=O)O)cc1 [METHOTREXATE]; experiment: as above; conditions: exposure time: 5 days
Summary of the method: as §1

Test System | surviving fraction ([1]; 0.5 nM) | surviving fraction ([1]; 1 nM) | surviving fraction ([1]; 5 nM) | surviving fraction ([1]; 10 nM) | surviving fraction ([1]; 50 nM) | surviving fraction ([1]; 100 nM) | surviving fraction ([1]; 500 nM) | surviving fraction ([1]; 1000 nM) | surviving fraction ([2]; 0.5 nM) | surviving fraction ([2]; 1 nM) | surviving fraction ([2]; 5 nM) | surviving fraction ([2]; 10 nM) | surviving fraction ([2]; 50 nM) | surviving fraction ([2]; 100 nM) | surviving fraction ([2]; 500 nM) | surviving fraction ([2]; 1000 nM)
SG27 HEADNECK | 0.937 ± 0.05 | 0.959 ± 0.078 | 0.864 ± 0.027 | 0.82 ± 0.024 | 0.68 ± 0.069 | 0.791 ± 0.032 | 0.849 ± 0.027 | 0.943 ± 0.098 | 1.1 ± 0.043 | 1.15 ± 0.15 | 1.09 ± 0.13 | 0.944 ± 0.15 | 1.07 ± 0.034 | 1.25 ± 0.021 | 1.12 ± 0.12 | 1.17 ± 0.07
SG28 HEADNECK | 0.977 ± 0.13 | 1.14 ± 0.023 | 1.07 ± 0.093 | 0.982 ± 0.026 | 0.959 ± 0.048 | 1.04 ± 0.087 | 1.01 ± 0.077 | 0.706 ± 0.057 | 1.06 ± 0.059 | 1.06 ± 0.02 | 1.07 ± 0.09 | 1.14 ± 0.088 | 1.04 ± 0.017 | 1.12 ± 0.087 | 1.123 ± 0.011 | 0.976 ± 0.084
SG31 HEADNECK | 1.21 ± 0.24 | 0.886 ± 0.12 | 0.994 ± 0.15 | 1.01 ± 0.17 | 0.836 ± 0.07 | 0.856 ± 0.12 | 0.883 ± 0.049 | 0.958 ± 0.051 | 1.14 ± 0.19 | 1.21 ± 0.037 | 1.07 ± 0.1 | 1.31 ± 0.22 | 1.16 ± 0.2 | 1.18 ± 0.19 | 1.26 ± 0.2 | 1.21 ± 0.024
SG32 HEADNECK | 0.915 ± 0.25 | 1 ± 0.15 | 0.925 ± 0.2 | 0.938 ± 0.083 | 1.04 ± 0.031 | 0.946 ± 0.032 | 0.968 ± 0.3 | 0.659 ± 0.056 | 0.946 ± 0.11 | 1.5 ± 0.84 | 1.19 ± 0.16 | 1.25 ± 0.34 | 0.899 ± 0.039 | 1.02 ± 0.2 | 1.1 ± 0.14 | 0.954 ± 0.078
SG43 HEADNECK | 1.02 ± 0.37 | 0.896 ± 0.17 | 0.714 ± 0.13 | 0.8 ± 0.13 | 0.759 ± 0.099 | 0.696 ± 0.14 | 0.94 ± 0.11 | 0.731 ± 0.074 | 0.924 ± 0.046 | 1.01 ± 0.21 | 0.917 ± 0.18 | 0.915 ± 0.16 | 0.881 ± 0.092 | 0.678 ± 0.091 | 0.909 ± 0.15 | 0.84 ± 0.055
SIHA CERVIX | 1.06 ± 0.037 | 1.08 ± 0.05 | 1.11 ± 0.066 | 0.985 ± 0.025 | 0.839 ± 0.079 | 0.895 ± 0.054 | 0.786 ± 0.06 | 0.785 ± 0.052 | 1.05 ± 0.02 | 1.14 ± 0.048 | 1.07 ± 0.085 | 1.1 ± 0.017 | 0.8 ± 0.014 | 0.835 ± 0.034 | 0.787 ± 0.018 | 0.782 ± 0.014
SJSA1 BONE | 1.01 ± 0.028 | 1.08 ± 0.08 | 1.08 ± 0.076 | 1.09 ± 0.046 | 1.14 ± 0.036 | 1.06 ± 0.05 | 1.01 ± 0.041 | 0.975 ± 0.075 | 1.62 ± 0.029 | 1.63 ± 0.05 | 1.61 ± 0.075 | 1.67 ± 0.14 | 1.7 ± 0.065 | 1.79 ± 0.12 | 1.64 ± 0.1 | 1.88 ± 0.062
SKBR3 BREAST | 1.07 ± 0.14 | 1.2 ± 0.05 | 1.04 ± 0.079 | 1.09 ± 0.13 | 1.15 ± 0.13 | 1.26 ± 0.13 | 1.16 ± 0.18 | 1.11 ± 0.13 | 1.02 ± 0.024 | 1.11 ± 0.027 | 1.11 ± 0.1 | 1.04 ± 0.12 | 0.784 ± 0.13 | 0.629 ± 0.038 | 0.503 ± 0.1 | 0.512 ± 0.13
SNU475 LIVER | 0.956 ± 0.021 | 1.02 ± 0.059 | 0.95 ± 0.024 | 0.972 ± 0.056 | 0.925 ± 0.047 | 0.948 ± 0.019 | 0.939 ± 0.053 | 0.894 ± 0.012 | 1.04 ± 0.056 | 1.05 ± 0.05 | 1.05 ± 0.018 | 0.924 ± 0.01 | 0.822 ± 0.13 | 0.854 ± 0.072 | 0.875 ± 0.047 | 0.843 ± 0.11
SUM44 BREAST | 0.9847 ± 0.0095 | 1.02 ± 0.029 | 0.985 ± 0.042 | 1.08 ± 0.064 | 1.11 ± 0.019 | 1.06 ± 0.011 | 1.09 ± 0.066 | 1.07 ± 0.05 | 1.31 ± 0.48 | 1.29 ± 0.48 | 1.23 ± 0.36 | 1.23 ± 0.39 | 1.33 ± 0.5 | 1.17 ± 0.38 | 0.819 ± 0.25 | 0.802 ± 0.29
SUM149 BREAST | 0.989 ± 0.054 | 1.05 ± 0.11 | 1.08 ± 0.017 | 1 ± 0.034 | 1.04 ± 0.072 | 0.989 ± 0.05 | 1.02 ± 0.073 | 0.916 ± 0.047 | 1.05 ± 0.075 | 1.13 ± 0.12 | 1.1 ± 0.087 | 1.06 ± 0.036 | 0.848 ± 0.074 | 0.751 ± 0.057 | 0.746 ± 0.027 | 0.781 ± 0.058
SUM149.B1*.S BREAST | 1.05 ± 0.013 | 1.083 ± 0.01 | 1.09 ± 0.04 | 1.09 ± 0.035 | 1.05 ± 0.083 | 1.07 ± 0.018 | 1.07 ± 0.054 | 1.07 ± 0.077 | 1.09 ± 0.065 | 1.12 ± 0.042 | 1.06 ± 0.036 | 1.09 ± 0.041 | 0.854 ± 0.035 | 0.767 ± 0.052 | 0.716 ± 0.046 | 0.733 ± 0.0095
SUM159 BREAST | 1.16 ± 0.24 | 1.19 ± 0.22 | 1.15 ± 0.2 | 1.2 ± 0.23 | 1.15 ± 0.2 | 1.14 ± 0.2 | 1.22 ± 0.27 | 1.1 ± 0.15 | 1.1 ± 0.027 | 1.09 ± 0.036 | 1.1 ± 0.049 | 1.09 ± 0.029 | 1.03 ± 0.038 | 0.951 ± 0.018 | 0.884 ± 0.013 | 0.897 ± 0.02
SYO1 SYNOVIAL | 0.897 ± 0.051 | 0.942 ± 0.022 | 0.744 ± 0.037 | 0.737 ± 0.021 | 0.664 ± 0.012 | 0.686 ± 0.02 | 0.637 ± 0.041 | 0.556 ± 0.046 | 0.991 ± 0.03 | 0.983 ± 0.047 | 0.984 ± 0.041 | 0.991 ± 0.074 | 0.419 ± 0.024 | 0.285 ± 0.0055 | 0.284 ± 0.02 | 0.281 ± 0.011
T47D BREAST | 1.02 ± 0.044 | 1.05 ± 0.013 | 1.06 ± 0.043 | 1.04 ± 0.034 | 1.09 ± 0.018 | 1.12 ± 0.025 | 1.18 ± 0.03 | 1.2 ± 0.073 | 1.12 ± 0.013 | 1.12 ± 0.073 | 1.07 ± 0.025 | 0.9393 ± 0.0076 | 0.562 ± 0.033 | 0.406 ± 0.065 | 0.33 ± 0.025 | 0.339 ± 0.024
U2OS BONE | 0.992 ± 0.042 | 1.024 ± 0.0069 | 0.95 ± 0.015 | 0.901 ± 0.024 | 0.777 ± 0.013 | 0.759 ± 0.029 | 0.711 ± 0.012 | 0.648 ± 0.0075 | 1 ± 0.045 | 1.02 ± 0.039 | 1.04 ± 0.051 | 0.31 ± 0.0076 | 0.672 ± 0.01 | 0.669 ± 0.014 | 0.636 ± 0.016 | 0.625 ± 0.026
VCAP PROSTATE | 0.966 ± 0.078 | 0.976 ± 0.043 | 1.1 ± 0.12 | 0.989 ± 0.12 | 0.948 ± 0.07 | 1.07 ± 0.07 | 0.795 ± 0.048 | 0.705 ± 0.065 | 0.961 ± 0.06 | 0.984 ± 0.036 | 1.02 ± 0.094 | 1.07 ± 0.11 | 1.03 ± 0.079 | 1.07 ± 0.062 | 1.02 ± 0.078 | 1 ± 0.058
VP229 BREAST | 1.32 ± 0.12 | 1.38 ± 0.049 | 1.42 ± 0.099 | 1.38 ± 0.065 | 1.25 ± 0.1 | 1.42 ± 0.092 | 1.4 ± 0.25 | 1.32 ± 0.033 | 1.13 ± 0.076 | 1.12 ± 0.15 | 1.14 ± 0.05 | 1.15 ± 0.13 | 1.25 ± 0.15 | 1.08 ± 0.12 | 1.12 ± 0.12 | 1.14 ± 0.053
YAMATO SYNOVIAL | 1.19 ± 0.024 | 1.22 ± 0.074 | 1.25 ± 0.038 | 1.22 ± 0.046 | 1.16 ± 0.064 | 1.08 ± 0.045 | 0.911 ± 0.05 | 0.816 ± 0.048 | 1.18 ± 0.13 | 1.05 ± 0.089 | 1.25 ± 0.17 | 0.532 ± 0.058 | 0.685 ± 0.065 | 0.587 ± 0.05 | 0.584 ± 0.046 | 0.604 ± 0.048
ZR751 BREAST | 0.902 ± 0.092 | 0.949 ± 0.095 | 0.838 ± 0.076 | 0.887 ± 0.041 | 0.837 ± 0.15 | 1.01 ± 0.029 | 1.05 ± 0.093 | 0.971 ± 0.059 | 1 ± 0.11 | 1.1 ± 0.14 | 0.975 ± 0.057 | 1.29 ± 0.21 | 0.715 ± 0.077 | 0.69 ± 0.088 | 0.707 ± 0.044 | 0.741 ± 0.011
